≈ marks a conversion by molar mass, not a printed value. Read-outs that look alike come from different tables or passages of the source.
How the values were obtained:
F. oxysporum = experiment: Spore germination method, indoor toxicity on Fusarium; format: cell-based
F. asiaticum = experiment: as above; format: cell-based
Protocol: Experimental methods and specific experimental steps for indoor toxicology determination of Fusarium were as follows:
Step (1): Collection of spores. Five plates (5 mm) evenly distributed on the edge of a medium for Fusarium cultured at 25° C. for 3 d were taken and placed in the CMC medium. After culture under shaking at 175 rpm and 25° C. for 5 d, a filtrate was collected with three layers of sterile lens-cleaning paper. Centrifuging was carried out at 10,000 rpm for 10 min. Washing was carried out twice with sterile water (10,000 rpm, 10 min/time). A spore concentration was adjusted to 1×10^4 ml^1.
Step (2): Setting of concentration gradients of drugs. […] Drugs and spore solutions were mixed, drawn to a cell culture plate and incubated in a thermostat incubator at 25° C. for a period of time.
Step (3): Investigation results and statistical analysis. When a spore germination rate of control group was >90%, spore germination was observed and analyzed statistically.
Spore germination rate (%)=number of germinated spores/number of inspected spores×100
Corrected germination rate (%)=(germination rate for control−germination rate for treatment)/([…])×100

pathogenic Phytophthora = experiment: Hyphae growth rate method (PDA plate method); format: cell-based
Text: Step 1): Setting of concentration gradients of drugs.
Step 2): Determination of EC50 values of drugs against pathogenic Phytophthora with a hyphae growth rate method (PDA plate method)

F. graminearum = experiment: microbe, parasite or virus in culture; format: cell-based
Botrytis cinerea [1] = experiment: Spore germination method on Botrytis cinerea; format: cell-based
Pyricularia oryzae = experiment: microbe, parasite or virus in culture; format: cell-based
Trichoderma = experiment: Hyphae growth rate method (PDA plate method); format: cell-based
wheat scab (Fg2021) = format: in vivo; conditions: wheat at flowering, vs control group
F. verticilloides = experiment: Spore germination method, indoor toxicity on Fusarium; format: cell-based
Botrytis cinerea [2] = experiment: Indoor in vivo efficacy on Botrytis cinerea, cucumber leaves; conditions: 4 d, vs control
Fusarium Fg2021 = experiment: Indoor in vivo efficacy on Fusarium, wheat coleoptiles; set-up: species or system Fusarium Fg2021 on wheat (Yumai 35) seedlings; conditions: Fg2021, 7 d, vs control
Protocol: Seeds of Yumai 35 were sterilized with 0.1% mercury dichloride for 5 min, rinsed with sterile water for 3 times and immersed for 2 h. The seeds were evenly placed in plastic boxes laid with double layers of sterile filter paper with 30 seeds a box. Cultivation was carried out at 25° C. with 90% humidity and a cycle of 12 h light and 12 h dark in a light incubator for 2 d. […] 12 h later, tips of the coleoptiles were cut. Cut wounds were inoculated with 5 μL of 5×10^5 cells/mL Fg2021 spore solution respectively. Cultivation was carried out in the light incubator. 7 d later, length of disease spot was investigated.

F. solani = experiment: Spore germination method, indoor toxicity on Fusarium; format: cell-based
Penicillium = experiment: Hyphae growth rate method (PDA plate method); format: cell-based
Pyricularia oryzae Guy11 = format: in vivo, Pyricularia oryzae Guy 11 on barley leaves; conditions: Guy11, 6 d
[3] = 15 μM sprayed on wheat coleoptiles
[4] = 7.5 mM sprayed on wheat coleoptiles

Question: With `O=C(O)CN(CCN(CC(=O)O)CC(=O)O)CCN(CC(=O)O)CC(=O)O` [DTPA, diethylenetriaminepentaacetic acid] as the compound, how does the EC50 (F. oxysporum; F. oxysporum, spore germination) read?
Answer: 17.77 µg/mL (≈ 45.2 µM)

Question: What about the EC50 (F. asiaticum) of the same compound?
Answer: 8.76 µg/mL (≈ 22.3 µM)

Question: What about the EC50 (pathogenic Phytophthora) of the same compound?
Answer: 20.35 µg/mL (≈ 51.7 µM)

Question: What about the EC50 (F. graminearum; F. graminearum, spore germination) of the same compound?
Answer: 16.22 µg/mL (≈ 41.2 µM)

Question: What about the EC50 (Botrytis cinerea [1]; spore germination) of the same compound?
Answer: 1.85 µg/mL (≈ 4.7 µM)

Question: And the EC50 (Pyricularia oryzae)?
Answer: 9.45 µg/mL (≈ 24 µM)

Question: And the EC50 (Trichoderma; hyphae growth rate)?
Answer: 7.6421 µg/mL (≈ 19.4 µM)

Question: And the “disease of wheat ears (diseased spikelets)” value (shortened to “disease of wheat ears”) (wheat scab (Fg2021); 7 g ha^−1, field)?
Answer: significantly lighter disease

Question: What about the EC50 (F. verticilloides; F. verticilloides, spore germination) of the same compound?
Answer: 18.82 µg/mL (≈ 47.8 µM)

Question: What about the disease spots (Botrytis cinerea [2]; 10 mM sprayed on cucumber leaves) of the same compound?
Answer: significantly shorter disease spots

Question: And the “length of disease spot” value (Fusarium Fg2021; [3])?
Answer: significantly shorter disease spots

Question: And the EC50 (F. solani; F. solani, spore germination)?
Answer: 17.80 µg/mL (≈ 45.3 µM)

Question: What about the EC50 (Penicillium; hyphae growth rate) of the same compound?
Answer: 4.3704 µg/mL (≈ 11.1 µM)

Question: With `O=C([O-])CN(CCN(CC(=O)[O-])CC(=O)[O-])CCN(CC(=O)[O-])CC(=O)[O-].[H+].[H+].[Na+].[Na+].[Na+]` [DTPANa3] as the compound, how does the disease spots (Pyricularia oryzae Guy11; 10 mM sprayed on barley leaves) read?
Answer: significantly reduced disease spots

Question: What about the EC50 (Botrytis cinerea [1]; spore germination) of the same compound?
Answer: 1.88 µg/mL

Question: What does the source list for `O=C([O-])CN(CCN(CC(=O)[O-])CC(=O)[O-])CCN(CC(=O)[O-])CC(=O)[O-].[Na+].[Na+].[Na+].[Na+].[Na+]` [DTPANa5]?
Answer: EC50 (Pyricularia oryzae): 9.32 µg/mL; length of disease spot (Fusarium Fg2021; [3]): significantly shorter disease spots

Question: How did the EC50 (F. oxysporum; Fusarium oxysporum) turn out when `O=C(O)CN(CCN(CC(=O)O)CC(=O)O)CC(=O)O` [EDTA, ethylenediaminetetraacetic acid] was run?
Answer: 17.7 µg/mL (≈ 60.5 µM)

Question: What about the EC50 (F. asiaticum; read-out: EC50) of the same compound?
Answer: 8.76 µg/mL (≈ 30 µM)

Question: And the EC50 (pathogenic Phytophthora; read-out: EC50)?
Answer: 18.2 µg/mL (≈ 62.4 µM)

Question: And the EC50 (F. graminearum; Fusarium graminearum)?
Answer: 17.8 µg/mL (≈ 60.8 µM)

Question: And the EC50 (Botrytis cinerea [1])?
Answer: 1.63 µg/mL (≈ 5.58 µM)

Question: And the EC50 (Pyricularia oryzae)?
Answer: 9.75 µg/mL (≈ 33.4 µM)

Question: What about the EC50 (Trichoderma) of the same compound?
Answer: 6.12 µg/mL (≈ 20.9 µM)

Question: What about the “disease of wheat ears” value (wheat scab (Fg2021); 7 g ha^−1, field) of the same compound?
Answer: significantly lighter disease

Question: And the EC50 (F. verticilloides)?
Answer: 19 µg/mL (≈ 65.1 µM)

Question: What about the disease spots (Botrytis cinerea [2]; 25 mM sprayed on cucumber leaves) of the same compound?
Answer: significantly shorter disease spots

Question: What about the “length of disease spot” value (Fusarium Fg2021; [4]) of the same compound?
Answer: significantly shorter disease spots

Question: And the EC50 (F. solani; Fusarium solani)?
Answer: 17.5 µg/mL (≈ 59.9 µM)

Question: What about the EC50 (Penicillium) of the same compound?
Answer: 3.15 µg/mL (≈ 10.8 µM)

Question: For `O=C([O-])CN(CCN(CC(=O)[O-])CC(=O)[O-])CC(=O)[O-].[Mg+2].[Mg+2]` [EDTAMg2], which disease spots (Botrytis cinerea [2]; 30 mM sprayed on cucumber leaves) is on record?
Answer: significantly shorter disease spots

Question: With `O=C([O-])CN(CCN(CC(=O)[O-])CC(=O)O)CC(=O)O.[Na+].[Na+]` [EDTANa2] as the compound, how does the disease spots (Pyricularia oryzae Guy11; 30 mM sprayed on barley leaves) read?
Answer: significantly reduced disease spots

Question: And the EC50 (pathogenic Phytophthora)?
Answer: 19.39 µg/mL

Question: What about the EC50 (Botrytis cinerea [1]; spore germination) of the same compound?
Answer: 1.12 µg/mL

Question: Which EC50 (pathogenic Phytophthora) does the source give for `O=C([O-])CN(CCN(CC(=O)[O-])CC(=O)O)CC(=O)[O-].[Na+].[Na+].[Na+]` [EDTANa3] here?
Answer: 17.56 µg/mL

Question: What does the source list for `O=C([O-])CN(CCN(CC(=O)[O-])CC(=O)[O-])CC(=O)[O-].[Na+].[Na+].[Na+].[Na+]` [EDTANa4]?
Answer: EC50 (Pyricularia oryzae): 9.01 µg/mL; length of disease spot (Fusarium Fg2021; [4]): significantly shorter disease spots

Question: With `COC(=O)Nc1nc2ccccc2[nH]1` [carbendazim, reference compound] as the compound, how does the “disease of wheat ears” value (wheat scab (Fg2021); 140 g ha^−1, field) read?
Answer: significantly lighter disease

Reference: patent publication US20210345609A1, “AMINOCARBOXYLIC ACID CHELATING AGENT WITH ANTIFUNGAL ACTIVITY AND SYNERGISTIC USE THEREOF WITH OTHER STERILANTS” (priority 2020, published 2021)
